The results in this text go back to US9388208B2, “Pyrrolo[1,2-f][1,2,4]triazines useful for treating respiratory syncitial virus infections” (Gilead Sciences, Inc., priority 2013, dated 2016).

A word on the EC50: it is the concentration giving half of the maximal effect. As usually defined, the CC50 is the concentration giving 50% cytotoxicity. A high value points to lower toxicity to the cells.

One data set relates to RSV strain A2. Put plainly: Anti-RSV activity, infectious cytopathic cell protection assay in HEp-2 cells. The note with it: human respiratory syncytial virus. Type of data set: cell-based, Respiratory Syncytial Virus (RSV). As for the experimental part:
Antiviral activity against RSV is determined using an infectious cytopathic cell protection assay in HEp-2 cells. In this assay, compounds inhibiting viral infection and/or replication produce a cytoprotective effect against the virus-induced cell killing that can be quantified using a cell viability reagent. The techniques used here are novel adaptations of methods described in published literature (Chapman et al., Antimicrob Agents Chemother. 2007, 51(9):3346-53.)
HEp-2 cells are obtained from ATCC (Manassas, VI) and maintained in MEM media supplemented with 10% fetal bovine serum and penicillin/streptomycin. Cells are passaged twice a week and kept at subconfluent stage. Commercial stock of RSV strain A2 (Advanced Biotechnologies, Columbia, Md.) is titered before compound testing to determine the appropriate dilution of the virus stock that generates desirable cytopathic effect in HEp-2 cells.
For antiviral tests, HEp-2 cells are grown in large cell culture flasks to near confluency but not fully so. The compounds to be tested are prediluted in DMSO in 384-well compound dilution plates, either in an 8 or 40 sample per plate standardized dose response format. 3-fold serial dilution increments of each test compound are prepared in the plates and test samples are transferred via acoustic transfer apparatus (Echo, Labcyte) at 100 nl per well into cell culture assay 384-well plates. Each compound dilution is transferred in single or quadruplicate samples into dry assay plates, which are stored until assay is ready to go. The positive and negative controls are laid out in opposite on ends of the plate in vertical blocks (1 column).
Subsequently, an infectious mixture is prepared using an appropriate dilution of virus stock previously determined by titration with cells at a density of 50,000/ml and 20 uL/well is added to test plates w/compounds via automation (uFlow, Biotek). Each plate includes negative and positive controls (16 replicates each) to create 0% and 100% virus inhibition standards, respectively. Following the infection with RSV, testing plates are incubated for 4 days in a 37° C. cell culture incubator. After the incubation, a cell viability reagent, Cell TiterGlo (Promega, Madison, Wis.) is added to the assay plates, which are incubated briefly, and a luminescent readout is measured (Envision, Perkin Elmer) in all the assay plates. The RSV-induced cytopathic effect, percentage inhibition, is determined from the levels of remaining cell viability. These numbers are calculated for each tested concentration relative to the 0% and 100% inhibition controls, and the EC50 value for each compound is determined by non-linear regression as a concentration inhibiting the RSV-induced cytopathic effect by 50%. Various potent anti-RSV tool compounds are used as positive controls for antiviral activity.
Background: Protection from cytopathic effect is a common read-out in antiviral testing.

The nature of data set [1]: Cytotoxicity assay in MT-4 cells. Type of data set: cell-based. The note with it: human, Cell-Titer Glo. How it is done:
The MT-4 cell line was obtained from the NIH AIDS Research and Reference Reagent Program (Germantown, Md.) and cultured in RPMI-1640 medium (Irvine Scientific, Santa Ana, Calif., Cat #9160) supplemented with 10% FBS, 100 units/mL penicillin, 100 units/mL streptomycin, and 2 mM L-Glutamine. The MT-4 cells were passaged twice per week to maintain cell densities below 0.6×10^6 cells/mL. Complete RPMI-1640 media containing 100× concentrations of 3-fold serially diluted compound, ranging from 26 nM to 530 μM, were stamped in quadruplicate into black 384-well plates. After compound addition, 2×10^3 MT-4 cells were added to each well using a MicroFlo liquid dispenser (BioTek, Winooski, Vt.) and the cells were cultured for 5 days at 37° C. in a 5% CO2 incubator. Following the incubation the cells were allowed to equilibrate to 25° C. and cell viability was determined by adding 25 μL of Cell-Titer Glo viability reagent. The mixture was incubated for 10 minutes at 25° C., and the luminescence signal was quantified on a Victor Luminescence plate reader. The CC50 value is defined as the concentration of compound that reduces cell viability by 50% as determined by the Cell-Titer Glo signal. The data were analyzed using Pipeline Pilot Plate Data Analytics Collection software (Version 7.0, Accelrys, San Diego, Calif.). CC50 values were calculated from a non-linear regression analysis using a 4-parameter sigmoidal dose-response equation: Y=Bottom+(Top−Bottom)/(1+10^[(Log CC50−X)*HillSlope]) where the Top and Bottom were fixed at 100% and 0% cell viability, respectively. CC50 values were calculated as the average±standard deviation of 3 independent experiments.

The nature of data set [2]: Cytotoxicity assay in HEp-2 cells. Type of data set: cell-based. The note with it: human, uninfected HEp-2 cells, CellTiter Glo. How it is done:
Cytotoxicity of tested compounds is determined in uninfected HEp-2 cells in parallel with the antiviral activity using the cell viability reagent in a similar fashion as described before for other cell types (Cihlar et al., Antimicrob Agents Chemother. 2008, 52(2):655-65.). The same protocol as for the determination of antiviral activity is used for the measurement of compound cytotoxicity except that the cells are not infected with RSV. Instead, an uninfected cell mixture at the same density is added at 20 ul/well to plates containing prediluted compounds, also at 100 nl/sample. Assay plates are then incubated for 4 days followed by a cell viability test using the same CellTiter Glo reagent addition and measurement of luminescent readouts. Untreated cell and cells treated at 2 uM puromycin (Sigma, St. Louis, Mo.) serve as 100% and 0% cell viability control, respectively. The percent of cell viability is calculated for each tested compound concentration relative to the 0% and 100% controls and the CC50 value is determined by non-linear regression as a compound concentration reducing the cell viability by 50%.
A general note: ATP-based viability assays read luminescence as a measure of living cells.

Setting [3] is: 96 h, HEp-2 cells infected with RSV A2, 4 days, Cell TiterGlo, read-out: EC50.
Where [4] appears, read: HEp-2 anti-RSV activity, read-out: EC50 (HEp-2 anti-RSV activity).

Like-named read-outs stand apart in the source and are kept apart here.

As to `Nc1ncnn2c([C@@H]3O[C@H](CO)[C@@H](O)[C@H]3F)ccc12` [(2R,3R,4R,5S)-5-(4-aminopyrrolo[1,2-f][1,2,4]triazin-7-yl)-4-fluoro-2-(hydroxymethyl)tetrahydrofuran-3-ol, reference compound], in the data set with RSV strain A2 (setting [3]), the EC50 is above 100 µM. Moreover, in data set [1], the CC50 at 5 days came to 30 µM.
For `Nc1ncnn2c([C@@H]3O[C@H](CO)[C@@H](O)[C@H]3O)ccc12` [(2S,3R,4S,5R)-2-(4-aminopyrrolo[1,2-t][1,2,4]triazin-7-yl)-5-(hydroxymethyl)tetrahydrofuran-3,4-diol, reference compound], in data set [1], the CC50 at 5 days worked out at 0.007 µM.
For the compound `C#C[C@]1(CO)O[C@@H](c2ccc3c(N)ncnn23)[C@H](F)[C@@H]1O` [Example 2, (2R,3R,4R,5S)-5-(4-aminopyrrolo[1,2-f][1,2,4]triazin-7-yl)-2-ethynyl-4-fluoro-2-(hydroxymethyl)tetrahydrofuran-3-ol], the figures for the EC50 in the data set with RSV strain A2 (setting [3]) and in the data set on RSV strain A2 (setting [4]) were 9.6 µM and below 100 µM, respectively. In addition, the half-maximal cytotoxic concentration (CC50) at 4 days in data set [2] was above 100 µM. In addition, in data set [1], the 50% cytotoxic concentration (CC50) at 5 days was above 106 µM.
Take `N#C[C@]1(CO)O[C@@H](c2ccc3c(N)ncnn23)[C@H](F)[C@@H]1O` [Example 3, (2R,3R,4R,5S)-5-(4-aminopyrrolo[1,24][1,2,4]triazin-7-yl)-4-fluoro-3-hydroxy-2-(hydroxymethyl)tetrahydrofuran-2-carbonitrile]: the values for the 50% effective concentration (EC50) in the data set with RSV strain A2 (setting [3]) and with RSV strain A2 (setting [4]) were 2 µM and below 100 µM, respectively. Also, the CC50 at 4 days in data set [2] is above 100 µM. Moreover, in data set [1], the cytotoxic concentration (CC50) at 5 days is above 106 µM.
Take `C[C@]1(CO)O[C@@H](c2ccc3c(N)ncnn23)[C@H](O)[C@@H]1O` [Example 4, (2R,3S,4R,5S)-5-(4-aminopyrrolo[1,2-f][1,2,4]triazin-7-yl)-2-(hydroxymethyl)-2-methyltetrahydrofuran-3,4-diol]: the EC50 in the data set with RSV strain A2 (setting [3]) amounted to 30 µM. Further, in data set [2], the 50% cytotoxic concentration (CC50) at 4 days is above 50 µM. Further, the 50% cytotoxic concentration (CC50) at 5 days in data set [1] was above 53 µM.
Take `[N-]=[N+]=N[C@]1(CO)O[C@@H](c2ccc3c(N)ncnn23)[C@H](O)[C@@H]1O` [Example 5, (2R,3S,4R,5S)-5-(4-aminopyrrolo[1,2-f][1,2,4]triazin-7-yl)-2-azido-2-(hydroxymethyl)tetrahydrofuran-3,4-diol]: the half-maximal effective concentration (EC50) with RSV strain A2 (setting [3]) was 2.1 µM. In addition, the cytotoxic concentration (CC50) at 4 days in data set [2] is above 50 µM. In addition, the CC50 at 5 days in data set [1] was above 53 µM.
Compound `CC(C)(C)C(=O)SCCOP(=O)(OCCSC(=O)C(C)(C)C)OC[C@@]1(C#N)O[C@@H](c2ccc3c(N)ncnn23)[C@H](F)[C@@H]1O` [Example 11, S,S′-2,2′-((((2R,3R,4R,5S)-5-(4-aminopyrrolo[1,2-f][1,2,4]triazin-7-yl)-2-cyano-4-fluoro-3-hydroxytetrahydrofuran-2-yl)methoxy)phosphoryl)bis(oxy)bis(ethane-2,1-diyl)bis(2,2-dimethylpropanethioate)] yielded a concentration giving a half-maximal response (EC50) with RSV strain A2 (HEp-2, 96 h) of 1.2 µM. The compound also had a CC50 at 4 days in data set [2] of 42 µM. In data set [1], this compound showed a CC50 at 5 days of 19.7 µM.
As to `CCC(CC)COC(=O)[C@H](C)NP(=O)(OC[C@@]1(C#N)O[C@@H](c2ccc3c(N)ncnn23)C(F)C1O)Oc1ccccc1` (stereo partly drawn) [Example 12, (2S)-2-ethylbutyl 2-((((2R,3R,4R,5S)-5-(4-aminopyrrolo[1,2-f][1,2,4]triazin-7-yl)-2-cyano-4-fluoro-3-hydroxytetrahydrofuran-2-yl)methoxy)(phenoxy)phosphorylamino)propanoate], the response with RSV strain A2 (HEp-2, 96 h) was half-maximal at 3 µM (EC50). This compound also showed a 50% cytotoxic concentration (CC50) at 4 days in data set [2] above 50 µM. In data set [1], this compound showed a half-maximal cytotoxic concentration (CC50) at 5 days of 27 µM.
As for `C=C[C@]1(CO)O[C@@H](c2ccc3c(N)ncnn23)[C@H](F)[C@@H]1O` [Example 13, (2R,3R,4R,5S)-5-(4-aminopyrrolo[1,2-f][1,2,4]triazin-7-yl)-4-fluoro-2-(hydroxymethyl)-2-vinyltetrahydrofuran-3-ol], the EC50 in the data set with RSV strain A2 (setting [3]) was 10.5 µM; in the data set on RSV strain A2 (setting [4]), below 100 µM. This compound had a CC50 at 4 days in data set [2] above 100 µM. Further, the CC50 at 5 days in data set [1] is above 106 µM.
Take `CC[C@]1(CO)O[C@@H](c2ccc3c(N)ncnn23)[C@H](F)[C@@H]1O` [Example 14, (2R,3R,4R,5S)-5-(4-aminopyrrolo[1,24][1,2,4]triazin-7-yl)-2-ethyl-4-fluoro-2-(hydroxymethyl)tetrahydrofuran-3-ol]: the EC50 in the data set with RSV strain A2 (setting [3]) is 40 µM; with RSV strain A2 (setting [4]) it was below 100 µM. The compound further returned a CC50 at 4 days in data set [2] above 100 µM. The compound also showed a CC50 at 5 days in data set [1] above 106 µM.
The compound `C=C[C@]1(COP(=O)(OCCSC(=O)C(C)(C)C)OCCSC(=O)C(C)(C)C)O[C@@H](c2ccc3c(N)ncnn23)[C@H](F)[C@@H]1O` [Example 15, S,S′-2,2′-((((2R,3R,4R,5S)-5-(4-aminopyrrolo[1,2-f][1,2,4]triazin-7-yl)-4-fluoro-3-hydroxy-2-vinyltetrahydrofuran-2-yl)methoxy)phosphoryl)bis(oxy)bis(ethane-2,1-diyl)bis(2,2-dimethylpropanethioate)] gave an EC50 in the data set with RSV strain A2 (HEp-2, 96 h) of 1.6 µM. This compound also showed a cytotoxic concentration (CC50) at 4 days in data set [2] of 35 µM. The 50% cytotoxic concentration (CC50) at 5 days in data set [1] turned out to be 7.9 µM.
In the same order, the values of `CCC(CC)COC(=O)[C@H](C)NP(=O)(OC[C@@]1(N=[N+]=[N-])O[C@@H](c2ccc3c(N)ncnn23)[C@H](O)[C@@H]1O)Oc1ccccc1` (stereo partly drawn) [Example 16, (2S)-2-ethylbutyl 2-(((((2R,3S,4R,5S)-5-(4-aminopyrrolo[2,1-f][1,2,4]triazin-7-yl)-2-azido-3,4-dihydroxytetrahydrofuran-2-yl)methoxy)(phenoxy)phosphoryl)amino)propanoate] are 0.3 µM, 18 µM and 25 µM.
For `[N-]=[N+]=N[C@]1(CO)O[C@@H](c2ccc3c(N)ncnn23)[C@H](F)[C@@H]1O` [Example 19, (2R,3R,4R,5S)-5-(4-aminopyrrolo[2,1-f][1,2,4]triazin-7-yl)-2-azido-4-fluoro-2-(hydroxymethyl)tetrahydrofuran-3-ol], the EC50 in the data set with RSV strain A2 (setting [3]) was 0.4 µM; in the data set on RSV strain A2 (setting [4]) it was below 100 µM. In addition, the CC50 at 4 days in data set [2] is above 44 µM. This compound also showed a 50% cytotoxic concentration (CC50) at 5 days in data set [1] of 16 µM.
As for `C=C[C@]1(CO)O[C@@H](c2ccc3c(N)ncnn23)[C@H](O)[C@@H]1O` [Example 20, (2R,3S,4R,5S)-5-(4-aminopyrrolo[2,1-f][1,2,4]triazin-7-yl)-2-(hydroxymethyl)-2-vinyltetrahydrofuran-3,4-diol], the EC50 with RSV strain A2 (setting [3]) was above 50 µM. This compound displayed a CC50 at 4 days in data set [2] above 50 µM. Besides, the 50% cytotoxic concentration (CC50) at 5 days in data set [1] is above 53 µM.
